# Source: US11987568B2, “Allosteric inhibitor of WEE1 kinase” (H. LEE MOFFITT CANCER CENTER AND RESEARCH INSTITUTE, INC., priority 2018, dated 2024)
# Values joined by “and” are separate entries in the source; they are usually repeats but may differ in a detail not shown here. Equal entries are not always repeated.
# Key:
# [1] = test system: histone H2B Tyr37-phopshorylation (pY37-H2B); test: WEE1 epigenetic activity in cells: pY37-H2B immunoprecipitation/immunoblot; type: cell-based, human; conditions: LNCaP cells
# Text: FIGS. 2A-2B show identification of 3 distinct types of inhibitors. […] In addition, the lysates were also subjected to by immunoblotting with pY15-Cdc2 or actin antibodies (middle and bottom panels). […] The number vehicle treated cells were used as control and percent of surviving cells were plotted.
# FIGS. 4A-4B show structures of ‘hits’ identified in WEE1 epigenetic inhibitor screen. […] The reaction mix was then subjected to immunoprecipitated with WEE1 antibodies, followed by immunoblotting with pTyr antibodies. […] In addition, the lysates were also subjected to immunoblotting with actin antibodies (bottom panel).
# FIGS. 7A-7C show identification of WEIN-159 as a potent WEE1 epigenetic inhibitor. […] In addition, lysates were immunoprecipitated with pY37-H2B antibodies, followed by immunoblotting with H2B antibodies (middle panel). […] The lysates were also subjected to immunoblotting with pY15-Cdc2 antibodies and were immunoprecipitated with pY37-H2B antibodies, followed by immunoblotting with H2B antibodies (middle panels). In addition, the lysates were also subjected to immunoblotting with H2B antibodies (bottom panel). […] The lysates were also subjected to immunoblotting with pY15-Cdc2 antibodies and were immunoprecipitated with pY37-H2B antibodies, followed by immunoblotting with H2B antibodies (middle panels). In addition, the lysates were also subjected to immunoblotting with actin antibodies (bottom panel).
# Identification of compounds with WEE1 epigenetic inhibitory role: 14 ‘hits’ that were identified in the screen are shown in FIG. 1. These compounds were further tested for their ability to inhibit WEE1 epigenetic activity. Prostate cancer derived LNCaP cells were treated with 3 uM of compounds for 48 hours. Cells were harvested, lysates were prepared, and WEE1 epigenetic activity was detected by determining histone H2B Tyr37-phopshorylation (pY37-H2B). Lysates were also assessed for WEE1 cell cycle inhibitory activity by determining Cdc2 Tyr15-phosphorylation (pY15-Cdc2). […] These are named as ‘Cell Cycle’ inhibitors. […] These compounds are the ‘Epigenetic’ inhibitors.
# [2] = target: full length human WEE1 kinase (Homo sapiens, UniProt P30291); test: ELISA based assay: WEE1 phosphorylation of biotinylated H2B peptide spanning Tyr37; type: biochemical; parameters: A full length human WEE1 kinase that was enzymatically active was purified from insect cell; ELISA assay % Inhibition: concentration or dose not given beside the values; conditions: for ELISA Inhibition (%): Table 1, several values in a cell are repeat determinations
# Text: Designing of a Novel inhibitor Screening Platform: […] A full length human WEE1 kinase that was enzymatically active was purified from insect cell. […] NCI diversity set compound library ( 1600 compounds) was used for the screening.
# [3] = test system: LNCaP cells; test: Cell cycle analysis by propidium iodide staining; type: cell-based, human; conditions: 16 hours
# Procedure: To further validate this observation, LNCaP cells were treated with WEIN-159 and 172 for 16 hours and cell cycle analysis was performed by propidium iodide staining.
# [4] = target: T1, Wee1 KD (Homo sapiens, UniProt P30291); test: Differential Scanning Fluorimetry (DSF), Wee1 KD; type: binding; conditions: kinase domain purified from HEK293T cells
# T1 construct: WEE1 & WEE2 (as control) kinase domains from mammalian cells (HEK293T cells) were purified
# Procedure: (§1) Binding study of WEE1 epigenetic inhibitors: To identify the precise binding region/domain of WEE1 epigenetic inhibitors, WEE1 & WEE2 (as control) kinase domains from mammalian cells (HEK293T cells) were purified. The binding of inhibitors was assessed using Differential Scanning Fluorimetry (DSF).
# [5] = test system: LAPC4 cells; test: LAPC4 cell proliferation, trypan blue exclusion assay; type: cell-based; conditions: Homo sapiens, 96 hr, viable cells by trypan blue exclusion
# Text: FIGS. 2A-2B show identification of 3 distinct types of inhibitors. […] In addition, the lysates were also subjected to by immunoblotting with […]-Cdc2 or actin antibodies (middle and bottom panels). […] The number vehicle treated cells were used as control and percent of surviving cells were plotted. […] The number of vehicle treated cells were used as control and percent of surviving cells were plotted. […] The number vehicle treated cells were used as control and percent of surviving cells were plotted. 7 of these epigenetic inhibitors in various assays such as cell proliferation assay, an in vitro kinase assay were performed and WEE1 autophosphorylation in vivo was determined. Prostate cancer derived LAPC4 cells were treated with inhibitors and its effect on cell proliferation was examined.
# [6] = target: T2, Wee2 KD (Homo sapiens, UniProt P0C1S8); test: Differential Scanning Fluorimetry (DSF), Wee2 KD; type: binding; conditions: kinase domain purified from HEK293T cells
# T2 construct: WEE1 & WEE2 (as control) kinase domains from mammalian cells (HEK293T cells) were purified
# Procedure: as §1
# [7] = test system: gamma-H2AX; test: DNA damage, gamma-H2AX immunoblot in LNCaP cells; type: cell-based, human; conditions: 3 μM, 12 hours (FIG. 3C)
# Procedure: The reaction mix was then subjected to immunoprecipitated with WEE1 antibodies, followed by immunoblotting with pTyr antibodies (top panel). As a control, purified ACK1 protein was incubated in the reaction buffer containing ATP, in presence of 100 nM epigenetic inhibitors. The reaction mix was then subjected to immunoprecipitated with ACK1 antibodies, followed by immunoblotting with pTyr antibodies (bottom panel). […] In addition, the lysates were also subjected to immunoblotting with actin antibodies (bottom panel). […] In addition, the lysates were also subjected to immunoblotting with actin antibodies (bottom panel).
# H2AX becomes phosphorylated on serine 139, called gamma-H2AX, is a marker of DNA damage as it localizes to sites of DNA strand breaks. This sensor then functions to trigger activation of the DNA damage response pathways. To assess whether any of the epigenetic inhibitors are potent DNA-damaging agents, cells were treated with the compounds followed by immunoblotting with gamma-H2AX antibodies.
# [8] = test system: Cdc2 Tyr15-phosphorylation (pY15-Cdc2); test: WEE1 cell cycle inhibitory activity in cells: pY15-Cdc2 immunoblot; type: cell-based, human; conditions: LNCaP cells
# Text: FIGS. 2A-2B show identification of 3 distinct types of inhibitors. […] In addition, the lysates were also subjected to by immunoblotting with […]-Cdc2 or actin antibodies (middle and bottom panels). […] The number vehicle treated cells were used as control and percent of surviving cells were plotted. […] In addition, the lysates were also subjected to immunoblotting with actin antibodies (bottom panel). Identification of compounds with WEE1 epigenetic inhibitory role: 14 'hits' that were identified in the screen are shown in FIG. 1. These compounds were further tested for their ability to inhibit WEE1 epigenetic activity. Prostate cancer derived LNCaP cells were treated with 3 uM of compounds for 48 hours. […] Lysates were also assessed for WEE1 cell cycle inhibitory activity by determining Cdc2 Tyr15-phosphorylation ([…]-Cdc2). […] These are named as 'Cell Cycle' inhibitors. […] These compounds are the 'Epigenetic' inhibitors.
# Chain of full length human WEE1 kinase (P30291 whole entry): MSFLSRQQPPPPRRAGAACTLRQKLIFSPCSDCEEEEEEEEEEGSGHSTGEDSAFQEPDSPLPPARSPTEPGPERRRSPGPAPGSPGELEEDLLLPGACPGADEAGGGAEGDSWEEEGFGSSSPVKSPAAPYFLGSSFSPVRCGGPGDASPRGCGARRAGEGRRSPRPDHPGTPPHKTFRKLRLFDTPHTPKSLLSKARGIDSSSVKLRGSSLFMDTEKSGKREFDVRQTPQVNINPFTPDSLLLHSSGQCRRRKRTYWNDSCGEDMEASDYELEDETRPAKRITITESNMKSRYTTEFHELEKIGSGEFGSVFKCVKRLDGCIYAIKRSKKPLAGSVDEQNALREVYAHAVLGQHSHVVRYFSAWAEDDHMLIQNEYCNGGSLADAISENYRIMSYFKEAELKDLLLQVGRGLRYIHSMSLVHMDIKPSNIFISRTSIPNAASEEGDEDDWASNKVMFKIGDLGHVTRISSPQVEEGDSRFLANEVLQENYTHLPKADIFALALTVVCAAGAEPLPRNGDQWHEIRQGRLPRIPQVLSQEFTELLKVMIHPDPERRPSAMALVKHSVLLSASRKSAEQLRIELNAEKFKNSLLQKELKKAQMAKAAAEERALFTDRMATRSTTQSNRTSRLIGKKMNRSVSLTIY
# T2 sequence (P0C1S8 212-486): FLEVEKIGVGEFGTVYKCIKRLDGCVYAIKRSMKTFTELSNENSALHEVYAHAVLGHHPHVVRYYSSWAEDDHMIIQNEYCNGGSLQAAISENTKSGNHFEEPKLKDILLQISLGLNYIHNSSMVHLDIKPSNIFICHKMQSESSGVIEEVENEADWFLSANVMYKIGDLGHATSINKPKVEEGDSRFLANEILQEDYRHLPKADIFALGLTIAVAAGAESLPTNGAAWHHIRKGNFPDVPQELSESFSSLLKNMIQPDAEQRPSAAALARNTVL
# T1 sequence (P30291 299-569): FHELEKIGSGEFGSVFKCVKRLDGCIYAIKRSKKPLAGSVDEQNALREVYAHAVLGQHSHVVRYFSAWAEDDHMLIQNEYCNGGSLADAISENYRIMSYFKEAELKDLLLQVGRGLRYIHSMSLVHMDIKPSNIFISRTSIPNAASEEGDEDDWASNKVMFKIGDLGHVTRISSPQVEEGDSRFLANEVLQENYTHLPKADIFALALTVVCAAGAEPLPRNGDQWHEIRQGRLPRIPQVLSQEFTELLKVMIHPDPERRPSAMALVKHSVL
Molecule,ELISA Inhibition (%) [2],other results
"C=CCn1c(=O)c2cnc(Nc3ccc(N4CCN(C)CC4)cc3)nc2n1-c1cccc(C(C)(C)O)n1 [AZD-1775, reference compound]",,"H2B Tyr37-phosphorylation (pY37-H2B) ([1]; 3 uM, 48 hours (FIG. 2A)): loss of both H2B and Cdc2-phosphorylation; ELISA assay % Inhibition ([2]; Table 3, No peptide = 100, No inhibitor = 0): 54%; Cell Cycle Analysis G1 [3]: 56.51; Cell Cycle Analysis G2/M [3]: 4.27; Cell Cycle Analysis S [3]: 39.22; ΔTm for Wee1 KD (° C.) [4]: 16.2 °C; IC50 [5]: 350 nM; ΔTm for Wee2 KD (° C.) [6]: 11.9 °C; DNA damage (gamma-H2AX) [7]: intensified double-strand DNA breakage; Cdc2 Tyr15-phosphorylation (pY15-Cdc2) ([8]; 3 uM, 48 hours (FIG. 2A)): loss of both H2B and Cdc2-phosphorylation"
"Nc1ccc(NC(=O)c2ccc(C(=O)Nc3ccc(N)cc3)o2)cc1 [SG5-111, N^2,N^5-bis(4-aminophenyl)furan-2,5-dicarboxamide]",46% and 55%,"H2B Tyr37-phopshorylation ([1]; 10 μM, 24 hours (FIG. 7A)): almost complete loss of H2B Tyr37-phopshorylation; Cdc Tyr-phopshorylation ([8]; 10 μM, 24 hours (FIG. 7A)): unaffected"
"Cl.Cl.Cl.Nc1ccc(NC(=O)c2ccc(C(=O)Nc3ccc(N)c(F)c3)nc2)cc1F [SG5-147-3, (2,5-Bis((4-amino-3-fluorophenyl)carbamoyl)pyridin-1-ium-1-yl)hydridochlorate(I) dihydrochloride]",50%,
Cl.Nc1ccc(NC(=O)C2CCC(C(=O)Nc3ccc(N)c(F)c3)CC2)cc1F (stereo not shown) [SG5-147-4],20%,
Cc1cc(C(=O)Nc2ccc(N)c(Cl)c2)c(C)cc1C(=O)Nc1ccc(N)c(Cl)c1.Cl [SG5-147-5],2%,
Cl.Nc1ccc(NC(=O)c2ccc(C(=O)Nc3ccc(N)c(Cl)c3)o2)cc1Cl [SG5-147-6],13%,
Cl.Nc1ccc(NC(=O)C2CCC(C(=O)Nc3ccc(N)c(Cl)c3)CC2)cc1Cl (stereo not shown) [SG5-147-8],17%,
Cc1cc(C(=O)Nc2ccc(CN)cc2)c(C)cc1C(=O)Nc1ccc(CN)cc1.Cl [SG5-147-9],9%,
Cl.NCc1ccc(NC(=O)c2ccc(C(=O)Nc3ccc(CN)cc3)o2)cc1 [SG5-147-10],4%,
Cl.NCc1ccc(NC(=O)C2CCC(C(=O)Nc3ccc(CN)cc3)CC2)cc1 (stereo not shown) [SG5-147-12],−9%,
Cc1cc(C(=O)NCc2ccc(N)cc2)c(C)cc1C(=O)NCc1ccc(N)cc1.Cl [SG5-147-13],12%,
Cl.Nc1ccc(CNC(=O)c2ccc(C(=O)NCc3ccc(N)cc3)o2)cc1 [SG5-147-14],−16%,
Cl.Nc1ccc(CNC(=O)C2CCC(C(=O)NCc3ccc(N)cc3)CC2)cc1 (stereo not shown) [SG5-147-16],−14%,
Cc1cc(C(=O)NC2CCNCC2)c(C)cc1C(=O)NC1CCNCC1.Cl [SG5-147-17],21%,
Cl.O=C(NC1CCNCC1)c1ccc(C(=O)NC2CCNCC2)o1 [SG5-147-18],−5%,
Cl.O=C(NC1CCNCC1)C1CCC(C(=O)NC2CCNCC2)CC1 (stereo not shown) [SG5-147-20],22%,
"(2,5-Bis((4-(aminomethyl)phenyl)carbamoyl)pyridin-1-ium-1-yl)hydridochlorate(I) dihydrochloride [SG5-147-11]",68%,
